Test results published in patent US20220087961A1, “TREATMENT METHODS OF TRIPHENYL CALCILYTIC COMPOUNDS” (CALCILYTIX THERAPEUTICS, INC., priority 2020, published 2022).

How the values were obtained:
[1] = cited from earlier work
subjects with ADH1 [2] = assay: Phase 2b open-label dose-ranging study, Period 2; format: in vivo, human
Description: Period 2: an inpatient stay that consists of 5 dosing days during which subjects will receive BID doses of CLTX-305 based on individual responses from Period 1 (for subjects who complete Period 1) or review of aggregate data from Period 1 (for subjects in Cohort 2 entering Period 2 without prior exposure to CLTX-305). The initial dose, dose level 1 (DL1) will be administered for 2 days (48 hours) with cCa monitoring. Participants will undergo encaleret dose up- or down-titration depending on cCa levels, with a potential increase in dose if cCa remains below the lower limit of normal and potential decrease in dose if cCa is greater than or equal to the upper limit of normal. A final test day (Day 5) will include frequent blood and urine sampling to collect 24-hour PK/PD profiles after at least 3 consecutive days of dosing (at either DL1 or DL2).
In Period 2, eligible Cohort 1 subjects, who have completed Period 1, may return after at least 8 weeks for admission to NIH for Period 2. After all Cohort 1 subjects have finished Period 1 and the data analyzed, the Sponsor will open enrolment for Cohort 2 subjects. Eligible Cohort 2 subjects may enroll directly into Period 2, after completing the screening and consent process per protocol. In Period 2 all subjects will initiate CLTX-305 BID dosing given within 30 minutes prior to breakfast and dinner on Days 1 and 2. cCa concentrations will be monitored frequently throughout Period 2, and CLTX-305 doses will be up- or down-titrated as needed to target normal cCa concentrations. Assessment of the 24-hour PK/PD profile of CLTX-305 with BID dosing will be conducted on Day 5.
As a result, all remaining subjects in Period 2 will receive an initial CLTX-305 90 mg BID dose for at least 3-4 doses for evaluation of safety, tolerability and the ability to modulate cCa levels. The CLTX-305 dose will be up- or down-titrated as needed to maintain cCa levels below 10 mg/dL and blood phosphorus levels above the lower limit of normal. […]

subjects with ADH1 [3] = assay: Phase 2b open-label dose-ranging study, Period 1 / Cohort 1; format: in vivo, human
Text: A Phase 2b, open-label dose-ranging study is designed to evaluate the safety, tolerability, and efficacy of CLTX-305 to maintain normalized albumin-corrected blood calcium (cCa) in subjects with hypocalcemia due to ADH1. An overview scheme of the Phase 2b study is illustrated in FIG. 2.
Period 1: an inpatient stay that consists of 5 dosing days during which subjects will undergo a once-daily (QD) dose escalation for 3 days followed by 2 days of twice daily (BID) dosing at an individualized test dose of CLTX-305.
In Period 1, eligible Cohort 1 subjects are admitted to the NIH CC after completing screening tests. On days 1-3 of admission, Cohort 1 subjects will undergo single daily dosing and protocol-specified dose-escalation of CLTX-305 from the initial dose of 30 mg on Day 1, increasing to a maximum dose of 180 mg on Day 3. Based on the individualized responses to QD dose escalation an individualized dose of CLTX-305 will be chosen for BID administration on Days 4 and 5.
Days 1, 2 and 3 (QD Dose Escalations): Up to 8 subjects (minimum of 5) will undergo a single-dose, dose-escalation over the first 3 days of admission in Period 1. Morning doses will be administered on Days 1, 2 and 3, respectively, accompanied by frequent blood and urine sampling for 24-hours for PK/PD measures. CLTX-305 will be administered in the morning within 30 minutes prior to breakfast. If dose escalation is limited due to tolerability or hypercalcemia, then the investigator, in consultation with sponsor, may choose to interrupt the pre-specified dose escalation. In this case, the investigator, in consultation with sponsor, may choose to repeat the last well tolerated dose on Days 2 and 3, or titrate down as appropriate.
Days 4 and 5 (BID Dose Escalation): Based on each subject's individual PD responses to QD dose-escalation, an individualized dose of CLTX-305 will be chosen for BID dosing on Days 4 and 5. CLTX-305 will be administered once in the morning and once in the evening, within 30 minutes prior to breakfast and dinner. The dose selected should be based on each subject's response in cCa and/or PTH levels during the prior QD dosing (Days 1-3).
Days 1, 2 and 3 (QD Dose Escalations): Up to 8 subjects (minimum of 5) will undergo a single-dose, dose-escalation over the first 3 days of admission. Morning doses of 30, 90 and 180 mg will be administered on Days 1, 2 and 3, respectively, accompanied by frequent blood and urine sampling for 24-hours for PK/PD measures (For details of PK/PD assays and timepoints as shown in Table 4A-Table 4C, Table 5, and Table 6A-Table 6C CLTX-305 will be administered in the morning, with water, within 30 minutes prior to breakfast. If dose escalation is limited due to tolerability or hypercalcemia, the investigator, in consultation with sponsor, may choose to repeat the last well-tolerated dose on Days 2 and 3, or down-titrate, as appropriate (See below for dosing guidance algorithm).
In order to characterize both the pre-study calcemic status as well as changes associated with experimental interventions, the protocol will rely on frequent measurement of albumin-corrected blood calcium concentrations. Assays will be conducted according to specifications of the NIH Clinical Center Laboratory, Bethesda, Md. The main indicator of normal versus abnormal blood calcium levels will be based on the correction for serum or plasma albumin according to the formula corrected calcium (cCa)=measured total calcium (mg/dL)+0.8(4−albumin (g/dL)) OR measured total calcium (mmol/L)+0.2(4−albumin (g/dL)), recognizing that the total calcium reported in SI units (mmol/L) can be converted to conventional units (mg/dL) by multiplying by 4. Given that enrolled subjects are expected to have both normal and stable albumin levels, the measures of total calcium and cCa are likely to be similar throughout the time course of this study. […]

[4] = preclinical; dose-limiting effects were mechanism-based serum calcium elevations; cited from earlier work
[5] = cited from earlier work; remark: listed apart in the source
[6] = non-clinical data; cited from earlier work
[7] = test system: healthy volunteers and postmenopausal women with osteoporosis; conditions: cited from earlier work
CaSR = target: T1, CaSR (Homo sapiens, UniProt P41180); conditions: cell-based assays at 2 mM extracellular calcium; read-out: IC50, inhibition of the CaSR via allosteric modulation; cited from earlier work
T1 sequence (P41180 20-1078): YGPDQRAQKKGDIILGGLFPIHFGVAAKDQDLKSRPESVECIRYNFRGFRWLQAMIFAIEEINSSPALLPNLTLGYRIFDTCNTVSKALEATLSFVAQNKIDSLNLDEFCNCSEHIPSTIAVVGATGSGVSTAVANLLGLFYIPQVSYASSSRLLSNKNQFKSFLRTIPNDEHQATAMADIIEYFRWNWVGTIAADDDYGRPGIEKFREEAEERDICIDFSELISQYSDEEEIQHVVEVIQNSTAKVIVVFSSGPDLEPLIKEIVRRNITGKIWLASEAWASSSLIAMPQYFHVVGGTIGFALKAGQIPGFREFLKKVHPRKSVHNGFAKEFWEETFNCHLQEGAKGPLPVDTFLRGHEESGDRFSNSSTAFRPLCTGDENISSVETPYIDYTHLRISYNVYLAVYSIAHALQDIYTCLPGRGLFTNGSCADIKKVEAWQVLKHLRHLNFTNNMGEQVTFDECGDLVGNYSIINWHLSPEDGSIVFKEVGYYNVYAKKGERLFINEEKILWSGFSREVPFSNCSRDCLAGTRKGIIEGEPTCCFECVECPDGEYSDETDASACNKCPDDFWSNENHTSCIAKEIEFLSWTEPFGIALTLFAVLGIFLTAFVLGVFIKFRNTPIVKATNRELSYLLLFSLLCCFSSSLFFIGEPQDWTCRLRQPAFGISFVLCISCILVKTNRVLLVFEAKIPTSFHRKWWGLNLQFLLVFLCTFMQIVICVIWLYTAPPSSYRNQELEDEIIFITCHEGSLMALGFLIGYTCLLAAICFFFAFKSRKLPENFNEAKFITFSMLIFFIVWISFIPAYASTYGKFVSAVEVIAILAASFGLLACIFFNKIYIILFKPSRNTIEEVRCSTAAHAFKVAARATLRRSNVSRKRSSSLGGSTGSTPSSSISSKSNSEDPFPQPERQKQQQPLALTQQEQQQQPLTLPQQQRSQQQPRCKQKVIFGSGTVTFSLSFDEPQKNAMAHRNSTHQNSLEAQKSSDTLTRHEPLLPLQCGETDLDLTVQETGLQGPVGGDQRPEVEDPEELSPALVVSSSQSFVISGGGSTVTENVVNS

healthy subjects = conditions: single oral dose of up to 100 mg; cited from earlier work
rabbits = conditions: fetuses; cited from earlier work
subjects with ADH1 [8] = conditions: subjects with ADH1, sample size of 5; cited from earlier work
[9] = humans, most single doses or steady-state
[10] = not significant when body weight taken into account

SMILES: Cc1cc(-c2ccccc2[C@@H](C)OC[C@H](O)CNC(C)(C)Cc2ccc(Cl)c(F)c2)ccc1C(=O)O [CLTX-305, encaleret]
- dose proportionality of plasma concentrations ([1]; 5, 10, 15, 30, 50 and 100 mg, fasted state): Dose-proportional increases
- age-related or race differences in pharmacokinetics ([1]; US population vs. Japanese subjects): No significant age-related or race differences
- half-life of CLTX-305 at steady state ([1]; as stated in the study assessment section): 10 to 14 h
- food effect on plasma concentrations ([1]; dose range 5-100 mg): without significant food effect
- tmax median [1, 9]: 1.5 h
- tmax range [1, 9]: 0.75 to 3 h
- elimination half-life (t1/2) after single doses ([1]; humans, single doses): approximately 6.5 hours
- elimination half-life (t1/2) at steady state ([1]; humans, steady state (14 days)): 11 to 14 h
- excretion of unchanged CLTX-305 and metabolites into urine ([1]; humans, total of parent and metabolite): < 5%
- AUC higher in females [1, 10]: approximately 37%
- Cmax higher in females [1, 10]: ~30%
- accumulation ([1]; once daily (QD) for two weeks, Japanese postmenopausal women): minimal accumulation
- serious adverse events (subjects with ADH1 [2]; Period 2 (Periods 1 and 2)): no serious adverse events reported
- tolerability (subjects with ADH1 [2]; Period 2 (Periods 1 and 2), once or twice daily over 5 days): well-tolerated
- Number of AEs (subjects with ADH1 [2]; Period 2, n=13): 12 n
- serious adverse events (subjects with ADH1 [3]; Period 1): no serious adverse events reported
- plasma exposure, dose relation (FIG. 8) (subjects with ADH1 [3]; Period 1, 30-180 mg): dose proportional increase in plasma exposure
- Number of AEs (subjects with ADH1 [3]; Period 1, N=6): 9 n
- tolerability (subjects with ADH1 [3]; Period 1, escalating oral doses once or twice daily over 5 days): well-tolerated
- PTH, mean level over 24 hours by day 5 (subjects with ADH1 [3]; Period 1, n=6, mean±SD, baseline 3.4±4.5): 64.8 ± 49.6 pg/mL
- Magnesium, 24-hour day 5 mean (subjects with ADH1 [3]; Period 1, n=6, baseline 1.6±0.4): 2.0 ± 0.5 mg/dL
- Phosphorus, 24-hour day 5 mean (subjects with ADH1 [3]; Period 1, n=6, baseline 4.5±0.7): 2.9 ± 0.5 mg/dL
- Albumin-corrected blood calcium (cCa), 24-hour mean on day 5 (subjects with ADH1 [3]; Period 1, n=6, baseline 7.6±0.6): 9.0 ± 0.5 mg/dL
- Twenty-four hour urine calcium on day 5 (subjects with ADH1 [3]; Period 1, n=6, screening 436±255 on conventional therapy): 63 ± 127 mg/day
- subjects in whom urinary calcium excretion became normal (subjects with ADH1 [3]; Period 1, of 6): 3 subjects
- subjects in whom urinary calcium excretion became undetectable (subjects with ADH1 [3]; Period 1, of 6): 3 subjects
- off-target or organ-specific toxicities [4]: no off-target or other tissue or organ-specific toxicities were identified
- increase in AUC0-24 on co-administration with ketoconazole [5]: approximately 2 ×
- increase in Cmax on co-administration with ketoconazole [5]: approximately 1.67 ×
- main route of elimination [6]: fecal excretion was the main route of elimination
- acute safety and tolerability ([7]; 5-100 mg, non-ADH1 subjects): acutely safe and well tolerated
- safety issues or signals ([7]; acute dosing up to 100 mg, chronic dosing up to 15 mg QD, over 1300 healthy males and post-menopausal women): no specific safety issues or signals were seen
- subjects with blood calcium above the upper limit of the laboratory reference range ([7]; chronic once-daily dosing up to 15 mg, postmenopausal women, long-term trials): up to 30%
- serious adverse events related to hyper- or hypocalcemia ([7]; osteoporosis program, postmenopausal women): No serious adverse events (SAEs)
- tolerability in humans during chronic treatment ([7]; up to and beyond 12 months): generally well tolerated
- IC50 (CaSR): 86.2 nM
- QTc prolongation (healthy subjects): no clinically meaningful QTc prolongation
- dose at which incidence of fetal skeletal anomalies (fusion of the sternebra) was increased (rabbits): ≥ 30 mg/kg

SMILES: CC(C)(CC1Cc2ccccc2C1)NC[C@@H](O)COc1cc(CCC(=O)O)ccc1C#N [NPSP795]
- dose-response on iPTH (subjects with ADH1 [8]): preliminary evidence for a dose-response on iPTH
